From patent publication US20040110775A1, “Cyclin dependent kinase inhibiting purine derivatives” (priority 2001, published 2004) come the findings set out here.

Several values for one entry are separate records, joined by “and”; a condition that tells them apart may be missing. Identical values can stand only once. Like-named read-outs stand apart in the source and are kept apart here.

One assay deals with p34 cdc2(CDK1)/cyclinB. Nature of the assay: CDK assay: histone H1 phosphorylation with [32P]ATP by cdc2/cyclinB kinase. It counts as biochemical, starfish (Marthasterias glacialis). The conditions noted are these: read-out: IC50 ± SD CDK1. On the procedure: Assays are available for testing the inhibitory activity of the compounds of interest against a range of CDK/cyclin complexes, including CDK1/cyclin A, CDK1/cyclin B, CDK1/cyclin F, CDK2/cyclin A, CDK2/cyclin E, CDK4/cyclin D, CDK5/35 and CDK6/cyclin D3. […]
(§1) By way of example, however, a typical protocol is summarised below.
Buffer C (containing 6 mM β-glycerophosphate, 30 mM nitrophenyl phosphate, 25 mM MOPS pH 7.0, 5 mM EGTA, 15 mM MgCl2, […] and 0.1 mM sodium orthovanadate) is made up as follows:
Affinity purified p34 cdc2(CDK1)/cyclinB from M-phase starfish (Marthasterias glacialis) in 20% glycerol is stored at −80° C. in chest freezer
Histone H1 (type III-S (Sigma) 4° C.) 5 mg/ml in buffer C.
[^32P]ATP 75 mM: Make up using (multiples of) the following proportions:
DMSO cannot exceed 1% in the assay mixture. Inhibitors are added at 1/10 final assay volume and 10× final strength. DMSO stocks must therefore be diluted to 10× final desired concentration in ≦10% DMSO, ≧90% buffer C.
All reagents (except DMSO stocks) should be kept on ice until assay initiated.
Start reaction in each tube at 30 second intervals b)y adding
5 ml [^32P]ATP vortexing and placing in rack in waterbath at 30° C.
Terminate reaction after 10 min at 30 second intervals in tubes in same order by removing […] reaction mix and spotting onto appropriately labelled filter, allowing to dry for 20-30 seconds and transferring to stirring 1% phosphoric acid.
Blank incubation is performed as above but without histone (add […] buffer C instead) Washing blank is […] ATP added directly to filter.
Wash filters 5-6 times 5 min each
Dry the filters on paper towel
Count in mini scintillation vials with 5 ml scintillant.
NB. The assay can be simplified by making up stock reaction mix as follows:
(1 part cdc2/cyclinB, 16 parts buffer C, 5 parts histone H1)×Number of assay tubes+1 and add […] to each assay tube containing […] buffer C±inhibitor.
It is still necessary, however, to make up assay blank (i.e. without histone) separately.

The target of another assay is CDK2 (Homo sapiens, UniProt P24941). Briefly: Inhibition of CDK2 (CDK inhibition assay). In kind it is biochemical. The conditions noted are these: read-out: IC50 ± SD CDK2.
From the text: Assays are available for testing the inhibitory activity of the compounds of interest against a range of CDK/cyclin complexes, including CDK1/cyclin A, CDK1/cyclin B, CDK1/cyclin F, CDK2/cyclin A, CDK2/cyclin E, CDK4/cyclin D, CDK5/35 and CDK6/cyclin D3.
Apart from reference compounds, the compounds listed are accompanied by an NU reference or identification code number.
as §1

`c1ccc(Nc2nc(OCC3CCCCC3)c3nc[nH]c3n2)cc1` [NU6094, 2-Anilino-6-cyclohexylmethoxypurine]: the IC50 at p34 cdc2(CDK1)/cyclinB (values given in μM) stood at 1.6 ± 0.1 µM. `Brc1cccc(Nc2nc(OCC3CCCCC3)c3nc[nH]c3n2)c1` [NU6095, 2-(3′-Bromoanilino)-6-cyclohexylmethoxypurine]: the IC50 at p34 cdc2(CDK1)/cyclinB (values given in μM) was found to be 5.3 ± 0.8 µM. On to `COc1cccc(Nc2nc(OCC3CCCCC3)c3nc[nH]c3n2)c1` [NU6096, 6-Cyclohexylmethoxy-2-(3′-methoxyanilino)purine], for which the 50% inhibitory concentration (IC50) at p34 cdc2(CDK1)/cyclinB (values given in μM) amounted to 2.2 ± 0.2 µM. For the molecule `Fc1cccc(Nc2nc(OCC3CCCCC3)c3nc[nH]c3n2)c1` [NU6098, 6-Cyclohexylmethoxy-2-(3′-fluoroanilino)purine], the IC50 on p34 cdc2(CDK1)/cyclinB (values given in μM) and at CDK2 (values given in μM) was roughly 10 µM throughout. As to `CCc1cccc(Nc2nc(OCC3CCCCC3)c3nc[nH]c3n2)c1` [NU6099, 6-Cyclohexylmethoxy-2-(3′-ethylanilino)purine], the half-inhibitory concentration (IC50) at p34 cdc2(CDK1)/cyclinB (values given in μM) and on CDK2 (values given in μM) was greater than 10 µM each time. With `COc1ccc(Nc2nc(OCC3CCCCC3)c3nc[nH]c3n2)cc1` [NU6100, 6-Cyclohexylmethoxy-2-(4′-methoxyanilino)purine], at p34 cdc2(CDK1)/cyclinB (values given in μM), the IC50 is 0.8 ± 0.01 µM. Take `CSc1cccc(Nc2nc(OCC3CCCCC3)c3nc[nH]c3n2)c1` [NU6101, 6-Cyclohexylmethoxy-2-(3′-methylmercaptoanilino)purine]: the IC50 at p34 cdc2(CDK1)/cyclinB (values given in μM) came to 2.4 ± 0.2 µM.

`Fc1ccc(Nc2nc(OCC3CCCCC3)c3nc[nH]c3n2)cc1` [NU6116, 6-Cyclohexylmethoxy-2-(4′-fluoroanilino)purine]: the IC50 at p34 cdc2(CDK1)/cyclinB (values given in μM) and on CDK2 (values given in μM) was greater than 10 µM throughout. For `CSc1ccc(Nc2nc(OCC3CCCCC3)c3nc[nH]c3n2)cc1` [NU6117, 6-Cyclohexylmethoxy-2-(4′-methylmercaptoanilino)purine], the IC50 at p34 cdc2(CDK1)/cyclinB (values given in μM) and on CDK2 (values given in μM) was greater than 10 µM in each case. For the molecule `COC(=O)c1ccc(Nc2nc(OCC3CCCCC3)c3nc[nH]c3n2)cc1` [NU6118, Methyl 4-N-(6′-Cyclohexylmethoxypurin-2′-yl)aminobenzoate], the IC50 at p34 cdc2(CDK1)/cyclinB (values given in μM) and at CDK2 (values given in μM) was roughly 10 µM each time. Turning to `Fc1ccc(Nc2nc(OCC3CCCCC3)c3nc[nH]c3n2)cc1Cl` [NU6119, 6-Cyclohexylmethoxy-2-(3′-chloro-4′-fluoroanilino)purine], the IC50 at p34 cdc2(CDK1)/cyclinB (values given in μM) and at CDK2 (values given in μM) was roughly 10 µM throughout. As to `N#CCc1ccc(Nc2nc(OCC3CCCCC3)c3nc[nH]c3n2)cc1` [NU6121, 6-Cyclohexylmethoxy-2-(4′-cyanomethylanilino)purine], the values for the IC50 at p34 cdc2(CDK1)/cyclinB (values given in μM) and at CDK2 (values given in μM) were 0.3 ± 0.1 µM and 0.3 ± 0.03 µM, respectively. In the same order, the values of `O=S(=O)(NCc1ccccc1)c1ccc(Nc2nc(OCC3CCCCC3)c3nc[nH]c3n2)cc1` [NU6123, N-Benzyl-4-(cyclohexylmethoxypurine-2-ylamino)-benzenesulfonamide] are 0.7 ± 0.3 µM and 0.2 ± 0.1 µM.

Turning to `NS(=O)(=O)c1ccc(CNc2nc(OCC3CCCCC3)c3nc[nH]c3n2)cc1` [NU6124, 4-[(6-Cyclohexylmethoxypurine-2-ylamino)methyl]benzenesulfonamide], the 50% inhibitory concentration (IC50) at p34 cdc2(CDK1)/cyclinB (values given in μM) was 17 ± 0.3 µM; at CDK2 (values given in μM), 15 µM and 13 µM. Regarding `CC(=O)c1ccc(Nc2nc(OCC3CCCCC3)c3nc[nH]c3n2)cc1` [NU6125], the IC50 on p34 cdc2(CDK1)/cyclinB (values given in μM) amounted to 0.5 ± 0.2 µM; on CDK2 (values given in μM) it was 0.3 ± 0.04 µM.

As for `C[S+]([O-])c1ccc(Nc2nc(OCC3CCCCC3)c3nc[nH]c3n2)cc1` (stereo not drawn) [NU6126], the half-maximal inhibitory concentration (IC50) at p34 cdc2(CDK1)/cyclinB (values given in μM) is 0.2 ± 0.1 µM. In the case of `CNS(=O)(=O)c1ccc(Nc2nc(OCC3CCCCC3)c3nc[nH]c3n2)cc1` [NU6127, 4-(6-Cyclohexylmethoxy-2-ylamino)-N-methylbenzenesulfonamide], at p34 cdc2(CDK1)/cyclinB (values in nM), the IC50 is 0.009 µM and 0.01 µM. The same measure, in the same setting: then `CN(C)S(=O)(=O)c1ccc(Nc2nc(OCC3CCCCC3)c3nc[nH]c3n2)cc1` [NU6128, 4-(6-Cyclohexylmethoxy-2-ylamino)-N,N-dimethylbenzenesulfonamide], with 0.077 ± 0.005 µM.

Take `CCNS(=O)(=O)c1ccc(Nc2nc(OCC3CCCCC3)c3nc[nH]c3n2)cc1` [NU6129, 4-(6Cyclohexylmethoxy-2-ylamino)-N-ethylbenzenesulfonamide]: the half-inhibitory concentration (IC50) at p34 cdc2(CDK1)/cyclinB (values in nM) was 0.007 µM and 0.009 µM; at CDK2 (values in nM), 0.008 ± 0.002 µM. For the molecule `CC(C)CNS(=O)(=O)c1ccc(Nc2nc(OCC3CCCCC3)c3nc[nH]c3n2)cc1` [NU6130, 4-(6Cyclohexylmethoxy-2-ylamino)-N-isobutylbenzenesulfonamide], the results for the IC50 on p34 cdc2(CDK1)/cyclinB (values in nM) and at CDK2 (values in nM) were 0.071 ± 0.009 µM and 0.069 ± 0.013 µM, respectively. Regarding `O=S(=O)(NC1CC1)c1ccc(Nc2nc(OCC3CCCCC3)c3nc[nH]c3n2)cc1` [NU6131, 4-(6-Cyclohexylmethoxy-9H-purin-2-ylamino)-N-cyclopropylbenzenesulfonamide], the IC50 on p34 cdc2(CDK1)/cyclinB (values in nM) amounted to 0.013 ± 0.005 µM; on CDK2 (values in nM) it was 0.008 ± 0.0003 µM.

With `O=S(=O)(Nc1cccc(Cl)c1)c1ccc(Nc2nc(OCC3CCCCC3)c3nc[nH]c3n2)cc1` [NU6132, N-(3-Chloro-phenyl)-4-(6-cyclohexylmethoxy-9H-purin-2-ylamino)benzenesulfonamide], the IC50 at CDK2 (values given in μM) was 5.7 µM. As for `CCCNS(=O)(=O)c1ccc(Nc2nc(OCC3CCCCC3)c3nc[nH]c3n2)cc1` [NU6133, 4-(6-Cyclohexylmethoxy-9H-purin-2-ylamino)-N-propylbenzenesulfonamide], the 50% inhibitory concentration (IC50) at p34 cdc2(CDK1)/cyclinB (values in nM) is 0.034 ± 0.004 µM; on CDK2 (values in nM) it was 0.017 ± 0.013 µM. As to `O=S(=O)(NCC1CCCO1)c1ccc(Nc2nc(OCC3CCCCC3)c3nc[nH]c3n2)cc1` (stereo not drawn) [NU6134, 4-(6-Cyclohexylmethoxy-9H-purin-2-ylamino)-N-(tetrahydrofuran-2-ylmethyl)benzenesulfonamide], the IC50 at p34 cdc2(CDK1)/cyclinB (values in nM) is 0.0072 µM and 0.0073 µM; at CDK2 (values in nM), 0.007 ± 0.0032 µM. `COCCNS(=O)(=O)c1ccc(Nc2nc(OCC3CCCCC3)c3nc[nH]c3n2)cc1` [NU6135, 4-(6-Cyclohexylmethoxy-9H-purin-2-ylamino)-N-(2-methoxyethyl)benzenesulfonamide]: the IC50 on p34 cdc2(CDK1)/cyclinB (values in nM) was found to be 0.018 ± 0.004 µM; at CDK2 (values in nM) it was 0.006 ± 0.0015 µM.

As to `CN(C)C(=O)c1ccc(Nc2nc(OCC3CCCCC3)c3nc[nH]c3n2)cc1` [NU6136, 4-(6-Cyclohexylmethoxy-9H-purin-2-ylamino)-N,N-dimethylbenzamide], the IC50 is 0.6 µM on p34 cdc2(CDK1)/cyclinB (values given in μM) and 0.2 µM on CDK2 (values given in μM). For `CNC(=O)c1ccc(Nc2nc(OCC3CCCCC3)c3nc[nH]c3n2)cc1` [NU6139, 4-(6-Cyclohexylmethoxy-9H-purin-2-ylamino)-N-methylbenzamide], the concentration for half-maximal inhibition (IC50) at p34 cdc2(CDK1)/cyclinB (values given in μM) stood at 0.7 µM; on CDK2 (values given in μM), 0.3 µM. With `CCN(CC)C(=O)c1ccc(Nc2nc(OCC3CCCCC3)c3nc[nH]c3n2)cc1` [NU6140, 4-(6-Cyclohexylmethoxy-9H-purin-2-ylamino)-N,N-diethylbenzamide], the half-maximal inhibitory concentration (IC50) on p34 cdc2(CDK1)/cyclinB (values given in μM) stood at 0.7 µM. For `CCCNC(=O)c1ccc(Nc2nc(OCC3CCCCC3)c3nc[nH]c3n2)cc1` [NU6142, 4-(6-Cyclohexylmethoxy-9H-purin-2-ylamino)-N-propylbenzamide], the IC50 is 0.42 µM on p34 cdc2(CDK1)/cyclinB (values given in μM) and roughly 0.1 µM on CDK2 (values in nM).

`CCNC(=O)c1ccc(Nc2nc(OCC3CCCCC3)c3nc[nH]c3n2)cc1` [NU6143, 4-(6-Cyclohexylmethoxy-9H-purin-2-ylamino)-N-ethylbenzamide]: the IC50 on p34 cdc2(CDK1)/cyclinB (values in nM) and on CDK2 (values in nM) was greater than 0.1 µM in each case.

In the case of `O=S(=O)(NCCO)c1ccc(Nc2nc(OCC3CCCCC3)c3nc[nH]c3n2)cc1` [NU6144, 4-(6-Cyclohexylmethoxy-9H-purin-2-ylamino)-N-(2-hydroxyethyl)benzenesulfonamide], the IC50 at p34 cdc2(CDK1)/cyclinB (values in nM) is 0.008 ± 0.0002 µM; at CDK2 (values in nM) it was 0.004 ± 0.0015 µM. The corresponding values for `O=S(=O)(Nc1nccs1)c1ccc(Nc2nc(OCC3CCCCC3)c3nc[nH]c3n2)cc1` [NU6145, 4-(6-Cyclohexylmethoxy-9H-purin-2-ylamino)-N-thiazol-2-ylbenzenesulfonamide] are 0.037 µM and 0.024 µM. As to `O=C(O)c1ccc(Nc2nc(OCC3CCCCC3)c3nc[nH]c3n2)cc1` [NU6147, 4-(6-Cyclohexylmethoxypurin-2-ylamino)benzoic acid], the 50% inhibitory concentration (IC50) on p34 cdc2(CDK1)/cyclinB (values given in μM) worked out at 0.24 µM. In the case of `OCc1cccc(Nc2nc(OCC3CCCCC3)c3nc[nH]c3n2)c1` [NU6151, [3-(6-Cyclohexylmethoxy-9H-purin-2-ylamino)phenyl]methanol], the IC50 on p34 cdc2(CDK1)/cyclinB (values given in μM) turned out to be 0.3 ± 0.01 µM.

Take `COc1cc(Nc2nc(OCC3CCCCC3)c3nc[nH]c3n2)ccc1S(N)(=O)=O` [NU6161, 4-[6-Cyclohexylmethoxy-9H-purin-2-ylamino]-benzene(3′-methoxy)sulfonamide]: the IC50 on p34 cdc2(CDK1)/cyclinB (values in nM) was 0.103 ± 0.004 µM.

Broadly, the IC50 is the concentration that inhibits the measured activity by half.
